IC50 and Activity data for four compounds are collected here from ChEMBL document CHEMBL2046394, “Isolation and characterization of α,β-unsaturated γ-lactono-hydrazides from Streptomyces sp” (J Nat Prod, 2012).

One may read the IC50 as the concentration that inhibits the measured activity by half.

The source made the active and inactive calls. No cut-off for these calls is given here.

One assay relates to Caco-2. Put plainly: Cytotoxicity against human Caco2 cells by MTT assay. The assay is classed as functional, cell-based. (Tetrazolium assays rely on reduction of a dye to a coloured formazan, in cell work by metabolically active cells.)
The subject of the next assay is Micrococcus luteus. The experiment in a line: Antibacterial activity against Micrococcus luteus ATCC 10240 by disk inhibition zone method. Type of assay: functional, organism-based.
The test system of another assay is Bacillus subtilis. The experiment in a line: Antibacterial activity against Bacillus subtilis ATCC 6633 by disk inhibition zone method. Type of assay: functional, organism-based.
Another assay deals with Escherichia coli. The experiment in a line: Antibacterial activity against Escherichia coli ATCC 25922 by disk inhibition zone method. The assay is classed as functional, organism-based.
Assay [1] can be described thus: Cytotoxicity against human MDA231 cells assessed as growth inhibition after 72 hrs. The assay is classed as functional, cell-based. To be noted: MDA-MB-231, 72 h.

As to `COc1cc(/C=C/C(=O)N(CCc2c[nH]c3ccc(O)cc23)N(CCc2c[nH]c3ccc(O)cc23)C(=O)/C=C/c2ccc(O)c(OC)c2)ccc1O` [MONTAMINE], in the assay on Caco-2, the IC50 is 43.9 µM.
Regarding `CCCCCCN(NC(=O)CO)C(=O)CCC1=CCOC1=O`, the result in the assay with Micrococcus luteus, in the assay with Bacillus subtilis and in the assay on Escherichia coli was inactive.
As for `O=C(O)CCC1=CCOC1=O`, the outcome with Micrococcus luteus, in the assay on Bacillus subtilis and in the assay on Escherichia coli was inactive.
Consider `CCCC/C=C\N(NC(C)=O)C(=O)CCC1=CCOC1=O` [GERALCIN B], for which the result with Micrococcus luteus, in the assay with Bacillus subtilis and in the assay with Escherichia coli was inactive. In assay [1], the IC50 turned out to be 5 µM.
